Experimental findings from ChEMBL document CHEMBL1131404, “A new strong inhibitor of beta-mannosidase” (Bioorg Med Chem Lett, 1998) are described below.

Assay [1] can be described thus: The compound was tested for its competitive inhibitory activity against Alpha-mannosidase.
Assay [2] is described as follows: The compound was tested for its inhibitory activity against alpha-mannosidase using p-nitrophenylmannopyranoside as substrate.

Structures are written as SMILES. pKi: −log10 of the molar value.

As to `O=[N+]([O-])c1ccc(O/N=C2\OC(CO)C(O)C(O)C2O)c([N+](=O)[O-])c1` (centres undefined), in assay [1], the pKi is 4.30. Also, the Km in assay [2] was 570 µM.
`O=C(Nc1ccccc1)O/N=C1\OC(CO)C(O)C(O)C1O` (centres undefined) had a pKi in assay [1] of 4.10. Besides, the Km in assay [2] came to 1200 µM.

As usually defined, the pKi is the Ki on a negative log10 scale, so that one unit is a factor of ten. For orientation: Km means the substrate concentration at which the rate is half of its maximum.
